Test results published in patent publication US10611765B2, “Pyrrolopyrimidine derivatives as Mps1/TTK kinase inhibitors” (Ohio State Innovation Foundation, priority 2014, dated 2020).
pIC50: −log10 of the molar value. Where two headings read alike, the source gives them in different places.

Assays:
[1] = test system: normal breast epithelial cells; assay: Primary cultures of normal breast epithelial cells; format: cell-based; conditions: up to 20 μM
Method: No notable cytotoxicity was observed after 24 hours of treatment at concentrations as high as 10 μM.

MDA-MB-468 = assay: MTS anti-proliferative assay, MDA-MB-468; format: cell-based; conditions: Homo sapiens, 168 h, MDA-MB-468, TNBC, basal B, treatment for 7 days
Method: (§1) The anti-proliferative effects and IC50 values of the compounds in the BC cell line panel were determined by MTS assay.
(§2) The cells, except Sk-Br-3, AU565 and BT-474 were maintained in a mixture of Dulbecco's modified Eagle's medium and Ham's F12 medium (1:1) (DMEM/F12) without phenol red supplemented with 5% fetal bovine serum (FBS) and 1× antibiotic-antimycotic (100 U/mL penicillin G sodium, 100 μg/mL streptomycin sulfate and 0.25 μg/mL amphotericin B) and were plated separately in flasks in a humidified incubator (5% CO2: 95% air, 37° C.). The media used for Sk-Br-3, AU565 and BT-474 cell lines was described in (1) Brueggemeier et al., J. Steroid Biochem. Mol. Biol., 2005; 95:129-136; and (2) Diaz-Cruz et al., J. Clin. Endocrinol. Metab., 2005; 90:2563-2570. The media were changed every 2-days. When the cells grew to about 80% confluence, cells were washed twice with calcium- and magnesium-free phosphate-buffered saline (PBS, pH 7.4), and then trypsinized with 0.05% trypsin-5.3 mm EDTA. The trypsinization was stopped by addition of culture medium with 5% FBS. After centrifugation, the dissociated cells were resuspended in the same medium and subcultured into 75-cm^2 culture flasks at a ratio of 1:5 flasks.
(§3) The BC cells were seeded at the density of 1,000 cells per well (100 μL) into 96 well plate in DMEM/F-12 (1:1), supplemented with 5% (v/v) FCS and incubated overnight at 37° C. Test compounds are solubilized in dimethyl sulfoxide (DMSO), diluted in cell culture medium to a range of final assay concentrations of 1 nM to 10 μM, added to cells and incubated for 7 days at 37° C. The medium including the test compound are refreshed at days 3 and 5. The MTS assay are carried out by using the CellTiter 96® AQueous One Solution Cell Proliferation Assay kit following the manufacturer's instruction.

MDA-MB-231 = assay: MTS anti-proliferative assay, MDA-MB-231; format: cell-based; conditions: Homo sapiens, 168 h, MDA-MB-231, TNBC, basal B, treatment for 7 days
Method: as §1, §2, §3

Hs578T = assay: MTS anti-proliferative assay, Hs578T; format: cell-based; conditions: Homo sapiens, Hs-578T, 168 h, TNBC, basal B, treatment for 7 days
Method: as §1, §2, §3

Sk-Br-3 = assay: MTS anti-proliferative assay, Sk-Br-3; format: cell-based; conditions: Homo sapiens, 168 h, Sk-Br-3, luminal, treatment for 7 days
Method: as §1, §2, §3

HCC1937 = assay: MTS anti-proliferative assay, HCC1937; format: cell-based; conditions: Homo sapiens, 168 h, HCC1937, TNBC, basal, treatment for 7 days
Method: as §1, §2, §3

CAMA-1 = assay: MTS anti-proliferative assay, CAMA-1; format: cell-based; conditions: Homo sapiens, 168 h, CAMA-1, luminal, treatment for 7 days
Method: as §1, §2, §3

AU565 = assay: MTS anti-proliferative assay, AU565; format: cell-based; conditions: Homo sapiens, 168 h, AU565, luminal, treatment for 7 days
Method: as §1, §2, §3

[2] = target: T1, Mps1/TTK kinase (recombinant GST-Mps1) (Homo sapiens, UniProt P33981); assay: Mps1 in vitro kinase assay with Cetn2 substrate; format: biochemical; conditions: read-out: IC50, in vitro kinase activity of Mps1
T1 sequence (P33981 1-857): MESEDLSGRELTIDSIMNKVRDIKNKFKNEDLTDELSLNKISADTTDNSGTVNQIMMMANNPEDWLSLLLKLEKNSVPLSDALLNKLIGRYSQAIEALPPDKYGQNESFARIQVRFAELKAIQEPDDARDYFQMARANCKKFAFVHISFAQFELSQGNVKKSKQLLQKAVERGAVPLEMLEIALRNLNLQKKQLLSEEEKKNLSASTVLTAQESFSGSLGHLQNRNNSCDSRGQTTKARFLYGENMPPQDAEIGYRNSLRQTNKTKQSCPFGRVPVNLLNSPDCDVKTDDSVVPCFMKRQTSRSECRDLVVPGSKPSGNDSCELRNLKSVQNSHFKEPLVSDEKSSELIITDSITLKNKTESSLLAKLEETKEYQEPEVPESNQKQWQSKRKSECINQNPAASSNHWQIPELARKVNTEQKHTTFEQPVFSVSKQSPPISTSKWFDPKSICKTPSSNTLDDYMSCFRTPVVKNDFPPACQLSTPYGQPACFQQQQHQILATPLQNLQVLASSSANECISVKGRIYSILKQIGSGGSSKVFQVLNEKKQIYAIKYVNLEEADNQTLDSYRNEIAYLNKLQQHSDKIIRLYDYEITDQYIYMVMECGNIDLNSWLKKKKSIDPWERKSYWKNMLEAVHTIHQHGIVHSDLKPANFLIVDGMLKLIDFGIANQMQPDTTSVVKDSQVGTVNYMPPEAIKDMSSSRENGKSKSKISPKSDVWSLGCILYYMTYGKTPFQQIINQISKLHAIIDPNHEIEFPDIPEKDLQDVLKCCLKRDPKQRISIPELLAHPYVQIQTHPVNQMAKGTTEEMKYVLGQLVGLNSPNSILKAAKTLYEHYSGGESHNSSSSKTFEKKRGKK
Method: To determine the efficacy of the compounds against Mps1/TTK kinase activity, assays were performed as previously described (11) using recombinant Mps1, Cetn2 (specific substrate), and varying concentration of compound.

BT-474 = assay: MTS anti-proliferative assay, BT-474; format: cell-based; conditions: Homo sapiens, 168 h, BT-474, luminal B, treatment for 7 days
Method: as §1, §2, §3

BT-20 = assay: MTS anti-proliferative assay, BT-20; format: cell-based; conditions: Homo sapiens, 168 h, BT-20, TNBC, basal A, treatment for 7 days
Method: as §1, §2, §3

T47D = assay: MTS anti-proliferative assay, T47D; format: cell-based; conditions: Homo sapiens, 168 h, luminal, treatment for 7 days
Method: as §1, §2, §3

[3] = test system: panel of breast cancer cell lines; assay: Anti-proliferative assays, panel of BC cell lines (overall statements); format: cell-based; conditions: for potency as compared to Mps1-IN-1: in some or all of the cell based assays in the panel
Method: This example describes the development of novel small molecule Mps1/TTK inhibitors as targeted therapies for TNBC and other aggressive BC using drug discovery technologies. Using computational modeling, medicinal chemistry, biochemistry and cell culture assays, the inventors have identified novel small molecules as potential Mps1/TTK inhibitors. The compounds were evaluated in anti-proliferative assays of a panel of 15 BC cell lines and further examined for their ability to inhibit a variety of Mps1-dependent biological functions.
as §1, §2, §3

[4] = additional investigations (text to Table 2)

SMILES: COc1cc(N2CCC(O)CC2)ccc1Nc1nc(Nc2ccccc2S(=O)(=O)C(C)C)c2cc[nH]c2n1 [Compound 1, 1-(4-((4-((2-(isopropylsulfonyl)phenyl)amino)-7H-pyrrolo[2,3-d]pyrimidin-2-yl)amino)-3-methoxyphenyl)piperidin-4-ol]
- inhibition of normal breast epithelial cells [1]: no inhibition or incomplete dose-response curves
- pIC50 (MDA-MB-468): 6.72
- pIC50 (MDA-MB-231): < 5.00
- pIC50 (Hs578T): < 5.00
- pIC50 (Sk-Br-3): < 5.00
- pIC50 (HCC1937): 6.14
- pIC50 (CAMA-1): 6.44
- pIC50 (AU565): < 5.00
- pIC50 [2, 4]: 6.09
- pIC50 ([2]; preliminary investigations): 6.81
- pIC50 (BT-474): < 5.00
- pIC50 (BT-20): 6.46
- pIC50 (T47D): < 5.00
- potency as compared to Mps1-IN-1 [3]: significantly more potent
- anti-proliferative effect, selectivity toward TNBC cells ([3]; preliminary studies of the initial series): moderate selectivity

SMILES: COc1cc(N2CCOCC2)ccc1Nc1nc(NC2CCCCC2)c2cc[nH]c2n1 [Compound 13, N4-cyclohexyl-N2-(2-methoxy-4-morpholinophenyl)-7H-pyrrolo[2,3-d]pyrimidine-2,4-diamine]
- inhibition of normal breast epithelial cells [1]: no inhibition or incomplete dose-response curves
- pIC50 (MDA-MB-468): 6.24
- pIC50 (MDA-MB-231): < 5.00
- pIC50 (Hs578T): < 5.00
- pIC50 (Sk-Br-3): 6.11
- pIC50 (HCC1937): 5.96
- pIC50 (CAMA-1): 5.96
- pIC50 (AU565): 6.05
- pIC50 [2, 4]: 6.45
- pIC50 ([2]; preliminary investigations): 7.52
- pIC50 (BT-474): 7.30
- pIC50 (BT-20): 6.24
- pIC50 (T47D): < 5.00
- potency as compared to Mps1-IN-1 [3]: significantly more potent
